≈ marks a conversion by molar mass, not a printed value.
Columns and labels:
[1] = Elution of antibiotic from pellets or flakes into PBS at 37° C., Fluorescence Polarization Immunoassay; type: physicochemical; conditions: from rapidly resorbing pellets loaded with 4% antibiotic, FIG. 2
Description: Elution was characterized by placing groups of eight pellets or the flakes of eight pellets (n≧3) in 20 ml phosphate buffered saline (PBS) in a 37° C. water bath. At specified times (t=1, 4, 8, 12, 24, 36, 48, 72, 96, 120, 144, 168, 240 hours), aliquots were removed and frozen at -40° C. At each time interval, the pellets were removed and placed in 20 ml fresh PBS. The amount of antibiotic in the eluates was determined (μg/ml) using a Florescence Polarization Immunoassay ([…], Abbott Laboratories, Abbott Park, Ill.). Testing was repeated for three batches of pellets.

[2] = system: Pseudomonas aeruginosa strain ATCC 27317; assay: Biological activity testing of eluates and antibiotic dilutions, growth in TSB, A530; type: cell-based; conditions: P. aeruginosa ATCC 27317, observed
Description: Pseudomonas aeruginosa strain ATCC 27317 was used for biological activity testing of AmikacinTM and GentamicinTM eluates. A clinical isolate of Staphylococcus aureus Cowan I strain was used to assess activity of VancomycinTM eluates. The eluate having the lowest concentration for each antibiotic at each of the specified time points was used in the biological activity assay. P. aeruginosa or S. aureus was grown overnight at 37° C. in Trypticase soy broth (TSB). Conical tubes were prepared with 1.75 ml of TSB and 200 μl of antibiotic dilutions (AmikacinTM: 0-640 μg/ml, GentamicinTM: 0-2560 μg/ml, VancomycinTM: 0-160 μg/ml), or 200 μl eluate samples, or 200 μl buffer. All tubes except blanks were inoculated with 50 μl of 1:50 dilution of bacteria. Blanks were supplanted with an additional 50 μl of TSB instead of bacteria. The tubes were vortexed and incubated at 37° C. for 24 hours. A blank was used to adjust the spectrophotometer to zero, and the absorbance at 530 nm ([…]) was recorded. Results were reported as percent growth relative to control, calculated as ([…] sample/[…] control)×100. This method dilutes the sample concentration by a factor of 10. Testing was repeated for three replicates of the samples.

Molecule | Elution profile (qualitative) [1] | minimum inhibitory concentration (MIC) [2] [µg/mL] | MIC ([2]; Pseudomonas aeruginosa, ATCC27317, read-out: minimum inhibitory concentration (MIC)) [µg/mL]
Gentamicin [Gentamicin™] | peak at hour one and decrease exponentially | 4.0 | –
NCC[C@H](O)C(=O)N[C@@H]1C[C@H](N)[C@@H](O[C@H]2O[C@H](CN)[C@@H](O)[C@H](O)[C@H]2O)[C@H](O)[C@H]1O[C@H]1O[C@H](CO)[C@@H](O)[C@H](N)[C@H]1O [Amikacin™, Amikacin] | peak at hour one and decrease exponentially | – | 4 (≈ 6.83 µM)
CN[C@H](CC(C)C)C(=O)N[C@H]1C(=O)N[C@@H](CC(N)=O)C(=O)N[C@H]2C(=O)N[C@H]3C(=O)N[C@H](C(=O)N[C@H](C(=O)O)c4cc(O)cc(O)c4-c4cc3ccc4O)[C@H](O)c3ccc(c(Cl)c3)Oc3cc2cc(c3O[C@@H]2O[C@H](CO)[C@@H](O)[C@H](O)[C@H]2O[C@H]2C[C@](C)(N)[C@H](O)[C@H](C)O2)Oc2ccc(cc2Cl)[C@H]1O [Vancomycin™, Vancomycin] | burst of antibiotic in hour one | – | –

Reference: patent publication US7923021B2, “Local delivery method and composition” (University of Memphis Research Foundation, priority 2007, dated 2011)
